These compounds were tested on VEGF-stimulated HUVEC proliferation (Human Umbilical Vein Endothelial cells) (assay: HUVEC Proliferation Assay). Details: 72 h, CyQuant dye, read-out: inhibited VEGF-stimulated HUVEC proliferation at a level (IC50 values determined).
Format: cell-based
Procedure: Human Umbilical Vein Endothelial cells are purchased from Clonetics, Inc., as cryopreserved cells harvested from a pool of donors. These cells, at passage 1, are thawed and expanded in EBM-2 complete medium, until passage 2 or 3. The cells are trypsinized, washed in DMEM+10% FBS+antibiotics, and spun at 1000 rpm for 10 min. Prior to centrifugation of the cells, a small amount is collected for a cell count. After centrifugation, the medium is discarded, and the cells are resuspended in the appropriate volume of DMEM+10% FBS+antibiotics to achieve a concentration of 3×10^5 cells/mL. Another cell count is performed to confirm the cell concentration. The cells are diluted to 3×10^4 cells/mL in DMEM+10% FBS+antibiotics, and 100 μL of cells are added to a 96-well plate. The cells are incubated at 37° C. for 22 h.
Prior to the completion of the incubation period, compound dilutions are prepared. Five-point, five-fold serial dilutions are prepared in DMSO, at concentrations 400-fold greater than the final concentrations desired. 2.5 μL of each compound dilution are diluted further in a total of 1 mL DMEM+10% FBS+antibiotics (400× dilution). Medium containing 0.25% DMSO is also prepared for the 0 μM compound sample. At the 22 h timepoint, the medium is removed from the cells, and 100 μL of each compound dilution is added. The cells are incubated at 37° C. for 2-3 h.
During the compound pre-incubation period, the growth factors are diluted to the appropriate concentrations. Solutions of DMEM+10% FBS+antibiotics, containing either VEGF or bFGF at the following concentrations: 50, 10, 2, 0.4, 0.08, and 0 ng/mL are prepared. For the compound-treated cells, solutions of VEGF at 550 ng/mL or bFGF at 220 ng/mL for 50 ng/mL or 20 ng/mL final concentrations, respectively, are prepared since 10 μL of each will be added to the cells (110 μL final volume). At the appropriate time after adding the compounds, the growth factors are added. VEGF is added to one set of plates, while bFGF is added to another set of plates. For the growth factor control curves, the media on wells B4-G6 of plates 1 and 2 are replaced with media containing VEGF or bFGF at the varying concentrations (50-0 ng/mL). The cells are incubated at 37° C. for an additional 72 h.
At the completion of the 72 h incubation period, the medium is removed, and the cells are washed twice with PBS. After the second wash with PBS, the plates are tapped gently to remove excess PBS, and the cells are placed at −70° C. for at least 30 min. The cells are thawed and analyzed using the CyQuant fluorescent dye (Molecular Probes C-7026), following the manufacturer's recommendations. The plates are read on a Victor/Wallac 1420 workstation at 485 nm/530 nm (excitation/emission). Raw data are collected and analyzed using a 4-parameter fit equation in XLFit. IC50 values are then determined.

CC1(C)CNCc2cc(NC(=O)c3ccc(F)cc3NCc3ccc(F)cc3)ccc21 [Example 107, N-(4,4-Dimethyl-1,2,3,4-tetrahydro-isoquinolin-7-yl)-4-fluoro-6-(4-fluoro-benzylamino)-benzamide] and CC1(C)CNCc2cc(NC(=O)c3cc(F)c(F)cc3NCc3ccc(F)cc3)ccc21 [Example 108, N-(4,4-Dimethyl-1,2,3,4-tetrahydro-isoquinolin-7-yl)-3,4-difluoro-6-(4-fluoro-benzylamino)-benzamide] cannot be ordered by IC50: under 1 µM for the first, under 1 µM for the second.

CC1(C)CNCc2cc(NC(=O)c3ccccc3NCc3c[nH]c4ncccc34)ccc21 [Example 113, N-(4,4-Dimethyl-1,2,3,4-tetrahydro-isoquinolin-7-yl)-2-[(1H-pyrrolo [2,3-b]pyridin-3-ylmethyl)-amino]-benzamide] and CC1(C)CNCc2cc(NC(=O)c3ccccc3NCc3cccc4nccnc34)ccc21 [Example 124, N-(4,4-Dimethyl-1,2,3,4-tetrahydro-isoquinolin-7-yl)-2-[(quinoxalin-5-ylmethyl)-amino]-benzamide] cannot be ordered by IC50: under 1 µM for the first, under 1 µM for the second.

CC(=O)N1Cc2cc(NC(=O)c3ccccc3NCc3ccnc4ccccc34)ccc2C(C)(C)C1 [Example 13, N-(2-Acetyl-4,4-dimthyl-1,2,3,4-tetrahydro-isoquinolin-7-yl)-2-[(quinolin-4-ylmethyl)-amino]-benzamide] and CC(=O)N1CC(C)(C)c2ccc(NC(=O)c3ccccc3NCc3ccc(F)cc3)cc21 [Example 3, N-(1-Acetyl-3,3-dimethyl-2,3-dihydro-1H-indol-6-yl)-2-(4-fluoro-benzylamino)-benzamide] cannot be ordered by IC50: under 1 µM for the first, under 1 µM for the second.

CN1CCN(C(=O)N2CC(C)(C)c3ccc(NC(=O)c4ccccc4NCc4ccc(F)cc4)cc32)CC1 [Example 8, N-[3,3-Dimethyl-1-(4-methyl-piperazine-1-carbonyl)-2,3-dihydro-1H-indol-6-yl]-2-(4-fluoro-benzylamino)-benzamide] and CC(=O)N1CC(C)(C)c2ccc(NC(=O)c3ccccc3NCc3cc[n+]([O-])cc3)cc21 [Example 10, N-(1-Acetyl-3,3-dimthyl-2,3-dihydro-1H-indol-6-yl)-2-[(1-oxy-pyridin-4-ylmethyl)-amino]-benzamide] cannot be ordered by IC50: under 1 µM for the first, under 1 µM for the second.

CC(Nc1ccccc1C(=O)Nc1ccc2c(c1)CNCC2(C)C)c1ccnc(N)n1 (stereo not drawn) [Example 127, 2-[1-(2-Amino-pyrimidin-4-yl)-ethylamino]-N-(4,4-dimethyl-1,2,3,4-tetrahydro-isoquinolin-7-yl)-benzamide] and CNc1nccc([C@H](C)Nc2ccccc2C(=O)Nc2ccc3c(c2)CNCC3(C)C)n1 [Example 130, (S)—N-(4,4-Dimethyl-1,2,3,4-tetrahydro-isoquinolin-7-yl)-2-[1-(2-methylamino-pyrimidin-4-yl)-ethylamino]-benzamide] cannot be ordered by IC50: under 0.1 µM for the first, under 1 µM for the second.

CC(Nc1ccccc1C(=O)Nc1ccc2c(c1)CN(C(=O)OC(C)(C)C)CC2(C)C)c1ccnc(N)n1 (stereo not drawn) [Example 126, tert-Butyl 7-{2-[1-(2-amino-pyrimidin-4-yl)-ethylamino]-benzoylamino}-4,4-dimethyl-3,4-dihydro-1H-isoquinoline-2-carboxylate] and CNc1nccc([C@@H](C)Nc2ccccc2C(=O)Nc2ccc3c(c2)N(C(C)=O)CC32CC2)n1 [Example 132, N-(1-Acetyl-1′,2′-dihydrospiro[cyclopropane-1,3′-[3H]indol]-6′-yl)-2-[[(1R)-1-[2-(methylamino)-4-pyrimidinyl]ethyl]amino]-benzamide] cannot be ordered by IC50: under 1 µM for the first, under 1 µM for the second.
